The values that follow come from patent US11116212B2, “Carbonyl containing compounds for controlling and repelling Cimicidae populations” (SemiosBio Technologies Inc., priority 2011, dated 2021).

Structures are written as SMILES. Read-outs that look alike come from different tables or passages of the source. Marks after values point to notes of the source that are not given here.

Format in all cases: in vivo
Assay [1] deals with bed bugs, Cimex lectularius. Briefly: Bed bug repellency bioassay, Petri dish arena. As to conditions: filter paper, 100 uL, 1% v/v in hexane, average of 3 replicates x 3 observation periods.
Text: (i) Petri Dish arenas consisted of a standard plastic, covered Petri Dish where test substrates were placed at opposite sides of the dish. Dimensions of the dish were 101.6 mm in diameter by 25.4 mm in depth.
(ii) Filter paper of standard size and folded as per (i).
In the case of gauze and filter paper substrates, control solvents and test mixtures of known concentrations and volumes were dispensed directly onto substrates using a pipette. […]
Immediately after the substrates were infused with test compounds and control solvents, test subjects were introduced to the centre of the selected observation arena. […] Only subjects that were in close contact with the treatment or control substrates were recorded. […] Percentage repellency was calculated based on a modification of Abbott's formula to account for negative repellency (attraction). […]
The test system of assay [2] is bed bugs, Cimex lectularius. Briefly: Bed bug repellency bioassay, glass tube olfactometer arena. As to conditions: for pest or weed control at 1 % / pest or weed control at 5 % strength / pest or weed control at 25 % strength: Cimex lectularius; for pest or weed control at 5 % strength: 50 uL, 5% w/v in hexane; for % Repellency, At least One Average >50%: best average over 3 replicates for a single time period. The procedure: (§1) Per individual bioassay, 10 adult or late instar nymph bed bugs, Cimex lectularius, of mixed sex. Bed bugs sourced from wild, field populations and tested within 2 weeks of capture. Subjects were tested one time, only.
(ii) Olfactometer consisting of a glass tube. Tube ends were plugged to prevent egress of test subjects. Test substrates were placed at opposite ends of the tube. Tube Olfactometer includes a port in the centre for introduction of test subjects. Dimensions of the tube were 15.2 mm in diameter by 304.8 mm long.
Compounds were either purchased from commercial sources or synthesized using conventional synthetic organic chemistry techniques (see, for example, Examples 5 to 7). Some compounds (014, 058 and 080) were tested in duplicate (one version from commercial sources and one synthesized) and the best performance is reported in the Tables below. Of the tested compounds reported in the Tables below, the following compounds were synthesized: 006, 010, 017, 018, 040, 041 to 043, 045, 046, 048, 049, 058, 067 to 075, 079, 080 to 082, 089 and 090.
Test compounds consisted of a control and treatment. The treatment consisted of a test compound mixed as a percentage w/w in a suitable solvent. The test compound solvent itself was used as a control. Solvents used were hexane, hexane:methanol, or dichloromethane:methanol.
(i) Gauze cut to a standard size and folded upon itself to provide harbourage for test subjects.
(iii) Absorbent polymer “aroma” beads that were given sufficient time to fully absorb test compounds and control solvents.
In the case of gauze and filter paper substrates, control solvents and test mixtures of known concentrations and volumes were dispensed directly onto substrates using a pipette. For polymer beads, beads were mixed w/w with solvent or test compound in a small glass jar. The jars were occasionally agitated to facilitate soaking of the beads.
(§2) Immediately after the substrates were infused with test compounds and control solvents, test subjects were introduced to the centre of the selected observation arena. […] Only subjects that were in close contact with the treatment or control substrates were recorded. Subjects elsewhere in the arena were not included in repellency calculations. Percentage repellency was calculated based on a modification of Abbott's formula to account for negative repellency (attraction). Specifically: IF(C>=T,(C−T)/C*100,(T−C)/T*−100)
(§3) where C is number of test subjects in contact with control substrate and T is number of test subjects in contact with treatment substrate.
All average repellency results reported in the table are based on 3 replicates for each reported trial, with each trial involving at least 3 observation periods. The observation periods were short-term (30 min), medium-term (1-2 hours), and long-term (24-48 hours). The “overall average” reported in the table represents the average for 3 replicates for 3 observation periods. […]
To determine whether compounds could be combined in the repellent compositions, compounds 14 and 35 were each tested at a concentration of 5% (w/w), and as a combination comprising each compound at a concentration of 2.5% (w/w). The formulations were tested as described in Example 1 using the olfactometer configuration.

Assay [3] has as its system bed bugs, Cimex lectularius. Briefly: Bed bug repellency bioassay, box arena (formulations of compound 35). The procedure:
as §1
(iii) Box arenas consisted of covered plastic “Rubbermaid” box where the cover was modified to fit a mesh screen to allow movement of air between the test arena interior and outside. Test substrates were placed at opposite ends of the box arena. Dimensions of the box were 304.8 mm long by 200 mm wide by 80 mm in depth.
as §2, §3
Compound 35 was formulated as a spray formulation in which the compound was dissolved in isopropyl alcohol (IPA) at concentrations of 1%, 2.5% and 5%.
In addition, compound 35 was tested on plastic slow-release beads. The beads were cured with either: 1) 20% (w/w) neat compound 35, or 2) 20% (w/w) of a 1:1 mixture of compound 35 and wintergreen oil (methyl salicylate).
The formulations were tested as described in Example 1 using the box configuration.

Where [4] appears, read: gauze, 10 uL, 1% v/v in hexane, average of 3 replicates x 3 observation periods, read-out: % Repellency (% R), Overall Average.
Setting [5] is: gauze, 10 uL, 1% v/v in hexane, best single observation (one repetition, one time), read-out: % Repellency, At least One Time >50%.
Setting [6] is: observation period T1, gauze, 10 uL, 1% v/v in hexane, read-out: % Repellency T1 (average of 3 repetitions).
[7] abbreviates: observation period T2, gauze, 10 uL, 1% v/v in hexane, read-out: % Repellency T2 (average of 3 repetitions).
Setting [8] is: observation period T3, gauze, 10 uL, 1% v/v in hexane, read-out: % Repellency T3 (average of 3 repetitions).
[9] abbreviates: gauze, average of 3 replicates x 3 observation periods, read-out: % Repellency (% R), Overall Average.
[10] abbreviates: beads, 20 uL, 25% w/w in hexane, average of 3 replicates x 3 observation periods, read-out: % Repellency (% R), Overall Average.
[11] abbreviates: observation period T1, beads, 20 uL, 25% w/w in hexane, read-out: % Repellency T1 (average of 3 repetitions).
[12] abbreviates: observation period T2, beads, 20 uL, 25% w/w in hexane, read-out: % Repellency T2 (average of 3 repetitions).
Where [13] appears, read: observation period T3, beads, 20 uL, 25% w/w in hexane, read-out: % Repellency T3 (average of 3 repetitions).

Take `CCOC(=O)CCC(=O)O` [Compound 055, Mono-ethyl succinate]: the “% Repellency (% R), Overall Average” value in assay [1] amounted to 73%.
Consider `C=CCOC(=O)CC` [Compound 017, allyl propionate], for which the pest or weed control at 1 % in assay [2] (setting [4]) was 4%; in assay [2] (setting [5]) it was 90%; in assay [2] (setting [6]), -20%; in assay [2] (setting [7]), 13%; in assay [2] (setting [8]), 18%.
As to `CCOC(C#CC(=O)CC)OCC` [Compound 079, 6,6-diethoxyhex-4-yn-3-one], in assay [2] (setting [9]), the pest or weed control at 5 % strength was > 80%.
Consider `CCCC(=O)/C=C/CO` [Compound 046, (E)-1-hydroxyhept-2-en-4-one], for which the pest or weed control at 5 % strength in assay [2] (setting [9]) came out at 65%.
`CC(=O)C(C)C(C)C(C)=O` (centres unmarked) [Compound 025, 3,4-dimethyl-2,5-hexanedione]: in assay [2] (setting [10]), the pest or weed control at 25 % strength was found to be 77%.
`CCC(=O)/C=C/C(C)O` (centres unmarked) [Compound 042, (E)-6-hydroxyhept-4-en-3-one]: in assay [2] (setting [9]), the pest or weed control at 5 % strength turned out to be 76%.
The same measure, in the same setting: the value for `CC(=O)CC/C=C(\C)CCC=C(C)C` [Compound 044, 6,10-dimethyl-5,9-undecadien-2-one] was > 80%.
Turning to `CCCC(=O)CCC` [Compound 051, 4-heptanone], in assay [2] (setting [10]), the pest or weed control at 25 % strength is > 80%.
In the case of `CCCCCCCCCCC(C)=O` [Compound 061, 2-dodecanone], the pest or weed control at 5 % strength in assay [2] (setting [9]) was > 80%.
As to `CC(C)C(=O)c1ccco1` [Compound 082, 1-(2-furyl)-2-methyl-propan-1-one], in assay [2] (setting [10]), the pest or weed control at 25 % strength is > 80%.
`CCC(=O)N(C)CC(OC)OC` [Compound 049, N-(2,2-dimethoxyethyl)-N-methylpropionamide]: in assay [2] (setting [4]), the pest or weed control at 1 % is 78%.
As to `CCC(=O)NCCO` [Compound 018, N-(2-hydroxyethyl) propionamide], the pest or weed control at 25 % strength in assay [2] (setting [10]) came out at 50%; in assay [2] (setting [11]), 69%; in assay [2] (setting [12]), 69%; in assay [2] (setting [13]) it was 11%. The “% Repellency, At least One Average >50%” value in assay [2] (beads, 20 uL, 25% w/w in hexane) was 69%.
For `CCCCC(=O)c1ccco1` [Compound 090, 1-Pentanone, 1-(2-furanyl)-], in assay [2] (setting [9]), the pest or weed control at 5 % strength was > 80%.
As to `CCOC(=O)c1ccco1` [Compound 085, Ethyl 2-furoate], the pest or weed control at 25 % strength in assay [2] (setting [10]) was 73%.
In the case of `COC(=O)CCC=O` [Compound 052, Methyl 4-oxobutanoate], the pest or weed control at 25 % strength in assay [2] (setting [10]) was -17%; in assay [2] (beads, 20 uL, 25% w/w in hexane, best single observation (one repetition, one time), read-out: % Repellency, At least One Time >50%), 100%; in assay [2] (setting [11]), 11%; in assay [2] (setting [12]) it was -50%; in assay [2] (setting [13]), -11%.
On to `CC(=O)c1ccco1` [Compound 080, 2-Furyl methyl ketone], for which, in assay [2] (setting [9]), the pest or weed control at 5 % strength is > 80%.
With `CCCCC/C=C/C=O` [Compound 039, trans-2-octenal], in assay [2] (setting [9]), the pest or weed control at 5 % strength turned out to be 78%.
As to `CC(=O)/C=C/C=O` [Compound 001, 4-oxo-2-pentenal], the pest or weed control at 5 % strength in assay [2] (setting [9]) stood at 57%.
Same read-out and setting: the value for `CCCCC(O)c1ccco1` (centres unmarked) [Compound 073, 1-(furan-2-yl) pentan-1-ol] was > 80%; that for `CCCCCCCCCCCC(C)=O` [Compound 024, Methyl undecyl ketone (2-tridecanone)] was > 80%.
Regarding `CCOC(=O)/C=C/C(=O)CC` [Compound 068, (E)-ethyl 4-oxohex-2-enoate], the pest or weed control at 1 % worked out at 43% in assay [2] (setting [4]), 30% in assay [2] (setting [6]), 32% in assay [2] (setting [7]) and 65% in assay [2] (setting [8]). Further, in assay [2] (gauze, 10 uL, 1% v/v in hexane), the “% Repellency, At least One Average >50%” value is listed as 65%.
As to `CCC(=O)CC` [Compound 062, 3-pentanone], the pest or weed control at 5 % strength was 10% in assay [2] (setting [9]); 89% in assay [2] (gauze, best single observation (one repetition, one time), read-out: % Repellency, At least One Time >50%); -11% in assay [2] (observation period T1, gauze, read-out: % Repellency T1 (average of 3 repetitions)); -3% in assay [2] (observation period T2, gauze, read-out: % Repellency T2 (average of 3 repetitions)); 43% in assay [2] (observation period T3, gauze, read-out: % Repellency T3 (average of 3 repetitions)).
As for `CCC(=O)/C=C/CO` [Compound 006, (E)-6-hydroxyhex-4-en-3-one], the pest or weed control at 1 % in assay [2] (setting [4]) was -49%; in assay [2] (setting [5]), 57%; in assay [2] (setting [6]), -62%; in assay [2] (setting [7]), -74%; in assay [2] (setting [8]), -11%.
In the case of `CCC(=O)OCc1ccco1` [Compound 035, Furfuryl propionate], the pest or weed control at 25 % strength in assay [2] (setting [10]) was > 80%. The “% R (Overall Average)” value worked out at 95% in assay [2] (Example 2, single compound at 5% (w/w)); 92% in assay [3] (IPA spray, 1% (w/w) compound 35 in isopropyl alcohol); 94% in assay [3] (IPA spray, 2.5% (w/w) compound 35 in isopropyl alcohol); 100% in assay [3] (IPA spray, 5% (w/w) compound 35 in isopropyl alcohol); 100% in assay [3] (plastic slow-release beads cured with 20% (w/w) neat compound 35); 100% in assay [3] (plastic slow-release beads, 10% compound 35 + 10% wintergreen oil (methyl salicylate)). For the same compound, the “repellency of formulations (in words)” value in assay [3] (both formulation formats (IPA spray, plastic beads), all concentrations tested) is on record as “excellent repellency”.
Turning to `CN(C)C(=O)CCC(=O)O` [Compound 053, 4-(Dimethylamino)-4-Oxobutanoic acid], the pest or weed control at 1 % in assay [2] (setting [4]) stood at 52%.
On to `C=CC(O)c1ccco1` (centres unmarked) [Compound 078, 2-Furanmethanol, a-ethenyl-], for which the pest or weed control at 25 % strength in assay [2] (setting [10]) was > 80%.
With `COC(=O)/C=C/C(C)=O` [Compound 056, Methyl trans-4-oxo-2-pentenoate], the pest or weed control at 5 % strength in assay [2] (setting [9]) was found to be 53%.
Turning to `CC(O)c1ccco1` (centres unmarked) [Compound 069, 1-(furan-2-yl)ethanol], the pest or weed control at 25 % strength in assay [2] (setting [10]) is > 80%.
